This is an account of results in patent US12649925B2, “Tissue-specific expression and hybrid plant production” (Dow AgroSciences LLC, priority 2013, dated 2026).

For one data set, the system named is maize tissues. Description: miRNA microarray expression profiling in maize tissues. On the set-up: species or system Zea mays. On the procedure: miRNA microarray in various maize tissues: Tissues from maize inbred line B104 were used for miRNA profiling. Leaf tissues (at V2, V8 and flag leaf stages); immature tassel tissues (0.5 to 2.5 cm length); mature tassel tissues (tassel visible in the whorl); immature ear tissues (0.5 to 2 cm length); and mature ear tissues (visible ear shoot) were collected and immediately submerged in liquid nitrogen and stored at −80° C. Total RNA and low molecular weight RNAs were extracted using a mirVana™ miRNA isolation kit (INVITROGEN; Carlsbad, CA) following the manufacturer's instructions. RNA quality and quantity were assessed by optical density with a NANODROP 2000 spectrophotometer (THERMO SCIENTIFIC; Wilmington, DE) and by gel electrophoresis. miRNA microarray was performed by a commercial provider (LC SCIENCES; Houston, TX) using μParaflo® microfluidic oligonucleotide microarray technology. Zhou et al., (2012) Methods Mol. Biol. 822:153-82. All unique plant miRNA sequences available in MiRBase™ (mirbase.org) were printed on the arrays and used for miRNA profiling. […]

In a further data set the test system is Maize Immature Embryos. Nature of the data set: Transient AAD1 expression in immature embryos after particle bombardment, ELISA. Format: cell-based, Zea mays. As to conditions: 24 hours after particle bombardment. An excerpt:
Zea mays embryos from inbred line B104 that express AAD1 mRNAs having miRNA target sites within the mRNA were produced. Control tissues having no miRNA target sites in the AAD1 mRNA, or having no AAD1 gene expression cassette, were also produced. Other control tissues were produced that had only a YFP gene expression cassette (and no AAD1 construct). Preparations of plant transformation DNA molecules constructed as described in EXAMPLE 2 were delivered into maize B104 immature embryos via particle bombardment transformation.
Plasmid DNAs of pDAB112375, pDAB112376, pDAB112377, pDAB113016, pDAB100286, pDAB112378 and pDAB112330 were isolated and purified from Escherichia coli by standard techniques, and diluted in TE buffer (10 mM Tris HCl plus 1 mM EDTA, pH 8) to 1.0 μg/μL.
Embryo isolation and culture: (Day 1) Surface-sterilized B104 immature ears (10 to 12 days post-pollination) were used for the isolation of embryos. Excised immature embryos from 3 to 4 ears were pooled into 2 mL microfuge tubes containing 2.0 mL liquid medium (LS basal medium (Linsmaier and Skoog, (1965) Physiologia Plantarum 18:100-27) containing CHU N6 vitamins (Chu et al. (1975) Scientia Sinica 18:659-68), 700 mg/L L-Proline, 68.5 gm/L sucrose, 36 gm/L D(+) glucose, and 1.5 mg/L 2,4-D). After embryo isolation, the liquid medium was removed and discarded. Embryos were removed and placed onto plates (40 embryos per plate) containing a semi-solid osmotic medium (MS basal medium (Murashige and Skoog, (1962) Physiologia Plantarum 15:473-497), 2 mg/L Glycine, 500 μg/L Thiamine, 500 μg/L Pyroxidine, 50 μg/L Nicotinic Acid., 120 gm/L sucrose, 100 mg/L myo-inositol, and 2.4 gm/L GELRITE). The embryos were arranged in a […] within the target area for particle bombardment. Three replicate plates were prepared for each construct to be tested. All plates were incubated at 28° C. under continuous low light (50 μEm^−2 sec^−1) for 24 hours prior to particle bombardment.
Coating gold particles with DNA: (Day 2) Tubes of frozen gold particles glycerol stock were thawed on ice for a few minutes, then vortexed for 2 minutes at high speed until a uniform gold suspension was produced. Gold suspension was pipetted into sterile microcentrifuge tubes (50 μL each), with an intermediate vortexing of the particle stock between each tube to maintain a uniform suspension. 2.5 μg each of appropriate plasmid DNAs were included. […]
ELISA quantification of AAD1 and PAT proteins: Enzyme Linked Immunosorbant Assays (ELISAs) were used to measure the production of AAD1 and PAT proteins in maize cells and stably-transformed tissues. […]
(In an ELISA, binding on a coated surface is turned into a signal by an enzyme label.)

“miR156: Zea mays micro-RNA, SEQ ID NO:1 UGACAGAAGAGAGUGAGCAC (expressed or natural sequence)”: the relative expression levels with maize tissues (Flag Leaf) is listed as 1657; in the data set on maize tissues (Immature Ear), 112; with maize tissues (Immature Tassel), 78; in the data set on maize tissues (Leaf V2), 4648; with maize tissues (Leaf V8), 1337; in the data set with maize tissues (Mature Ear), 1595. This molecule yielded a relative expression levels in the data set on maize tissues (Mature Tassel) of 2810.

Take “miR319: micro-RNA, SEQ ID NO:3 UUGGACUGAAGGGUGCUCCC (expressed or natural sequence)”: the relative expression levels is 16 in the data set with maize tissues (Flag Leaf); 3905 in the data set with maize tissues (Immature Ear); 2078 with maize tissues (Immature Tassel); 13 with maize tissues (Leaf V2); 8 with maize tissues (Leaf V8); 4616 with maize tissues (Mature Ear). In the data set with maize tissues (Mature Tassel), this molecule returned a relative expression levels of 1566.

With “miR529: Zea mays micro-RNA, SEQ ID NO:2 AGAAGAGAGAGAGUACAGCCU (expressed or natural sequence)”, the relative expression levels in the data set on maize tissues (Flag Leaf) worked out at 30; in the data set with maize tissues (Immature Ear) it was 90; in the data set with maize tissues (Immature Tassel), 3174; in the data set with maize tissues (Leaf V2), 199; with maize tissues (Leaf V8), 34; in the data set on maize tissues (Mature Ear), 1405. This molecule also registered a relative expression levels in the data set on maize tissues (Mature Tassel) of 1512. For the same molecule, the “level higher in immature tassel tissues than in leaves” value in the data set with maize tissues (immature tassel vs leaves) is 16- to 100 fold.

B1: pDAB112375: Transient transformation construct: ZmUbilv2/AAD1 v3/native WT miR529-156 site/ZmPer5 3′UTR (SEQ ID NO:6) (nucleic acid)
DNA: ATGGCTCATGCTGCCCTCAGCCCTCTCTCCCAACGCTTTGAGAGAATAGCTGTCCAGCCACTCACTGGTGTCCTTGGTGCTGAGATCACTGGAGTGGACTTGAGGGAACCACTTGATGACAGCACCTGGAATGAGATATTGGATGCCTTCCACACTTACCAAGTCATCTACTTTCCTGGCCAAGCAATCACCAATGAGCAGCACATTGCATTCTCAAGAAGGTTTGGACCAGTTGATCCAGTGCCTCTTCTCAAGAGCATTGAAGGCTATCCAGAGGTTCAGATGATCCGCAGAGAAGCCAATGAGTCTGGAAGGGTGATTGGTGATGACTGGCACACAGACTCCACTTTCCTTGATGCACCTCCAGCTGCTGTTGTGATGAGGGCCATAGATGTTCCTGAGCATGGCGGAGACACTGGGTTCCTTTCAATGTACACAGCTTGGGAGACCTTGTCTCCAACCATGCAAGCCACCATCGAAGGGCTCAACGTTGTGCACTCTGCCACACGTGTGTTCGGTTCCCTCTACCAAGCACAGAACCGTCGCTTCAGCAACACCTCAGTCAAGGTGATGGATGTTGATGCTGGTGACAGAGAGACAGTCCATCCCTTGGTTGTGACTCATCCTGGCTCTGGAAGGAAAGGCCTTTATGTGAATCAAGTCTACTGTCAGAGAATTGAGGGCATGACAGATGCAGAATCAAAGCCATTGCTTCAGTTCCTCTATGAGCATGCCACCAGATTTGACTTCACTTGCCGTGTGAGGTGGAAGAAAGACCAAGTCCTTGTCTGGGACAACTTGTGCACCATGCACCGTGCTGTTCCTGACTATGCTGGCAAGTTCAGATACTTGACTCGCACCACAGTTGGTGGAGTTAGGCCTGCCCGCTGAGTAGTTAGCTTAATCACCTAGAGCTCGACTCCAGCTGTGCTCTCTCTCTTCTGTCAACTCAGGTAACCTTTAAACTGAGGGCACTGAAGTCGCTTGATGTGCTGAATTGTTTGTGATGTTGGTGGCGTATTTTGTTTAAATAAGTAAGCATGGCTGTGATTTTATCATATGATCGATCTTTGGGGTTTTATTTAACACATTGTAAAATGTGTATCTATTAATAACTCAATGTATAAGATGTGTTCATTCTTCGGTTGCCATAGATCTGCTTATTTGACCTGTGATGTTTTGACTCCAAAAACCAAAATCACAACTCAATAAACTCATGGAATATGTCCACCTGTTTCTTGAAGAGTTCATCTACCATTCCAGTTGGCATTTATCAGTGTTGCAGCGGCGCTGTGCTTTGTAACATAACAATTGTTACGGCATATATCCAA
modifications: pDAB112375 expression cassette; (918)..(952) native tsh4 miR529-156 target site; (967)..(1331) ZmPer5 3′UTR
As to B1, the results for the “Mean AAD1 Amount” value in the data set on Maize Immature Embryos (co-bombardment plasmid pDAB112330 (Cry34Ab)) and in the data set with Maize Immature Embryos (co-bombardment plasmid pDAB112378 (artificial miRNA)) were 58 ng/mL and 51 ng/mL, respectively.
